Converted amounts (≈) assume the structure as drawn. The source made the active and inactive calls. The rule behind the calls is not given here.
What was measured:
Format in all cases: functional, organism-based
Cryptococcus neoformans = test: Antifungal activity against Cryptococcus neoformans ATCC 90113 by broth dilution method
Candida albicans = test: Antifungal activity against Candida albicans ATCC 90028 by broth dilution method
Nakaseomyces glabratus = test: Antifungal activity against Candida glabrata ATCC 90030 by broth dilution method
Pichia kudriavzevii = test: Antifungal activity against Candida krusei ATCC 6258 by broth dilution method
Aspergillus fumigatus = test: Antifungal activity against Aspergillus fumigatus ATCC 90906 by broth dilution method

Compound	Activity (Cryptococcus neoformans)	Activity (Candida albicans)	Activity (Nakaseomyces glabratus)	Activity (Pichia kudriavzevii)	Activity (Aspergillus fumigatus)	IC50 (Cryptococcus neoformans) [µg/mL]
C=C1CO[C@]2(C[C@H]1O)OC1C[C@H]3[C@@H]4CC=C5C[C@@H](O)C[C@@H](O[C@@H]6OC[C@H](OS(=O)(=O)O)[C@H](O)[C@H]6O[C@@H]6O[C@@H](C)[C@H](O)[C@@H](O)[C@H]6O)[C@]5(C)[C@H]4CC[C@]3(C)[C@H]1[C@@H]2C (stereo partly specified)	inactive	inactive	inactive	inactive	inactive	–
C[C@H]1CC[C@@]2(OC1)OC1C[C@H]3[C@@H]4C(=O)C=C5C[C@@H](O)C[C@@H](O[C@@H]6OC[C@H](OS(=O)(=O)O)[C@H](O)[C@H]6O[C@@H]6O[C@@H](C)[C@H](O)[C@@H](O)[C@H]6O)[C@]5(C)[C@H]4CC[C@]3(C)[C@H]1[C@@H]2C (stereo partly specified)	inactive	inactive	inactive	inactive	inactive	–
C[C@@H]1[C@H](O)[C@@H](C)/C=C/C=C/C=C/C=C/C=C/C=C/C=C/[C@H](O[C@@H]2O[C@H](C)[C@@H](O)[C@H](N)[C@@H]2O)C[C@@H]2O[C@](O)(C[C@@H](O)C[C@@H](O)[C@H](O)CC[C@@H](O)C[C@@H](O)CC(=O)O[C@H]1C)C[C@H](O)[C@H]2C(=O)O [AMPHOTERICIN B]	–	–	–	–	–	2.5 (≈ 2.71 µM)
C[C@H]1CC[C@@]2(OC1)OC1C[C@H]3[C@@H]4CC=C5C[C@@H](O)C[C@@H](O[C@@H]6OC[C@H](O)[C@H](O[C@@H]7OC[C@@H](O)[C@H](O)[C@H]7O)[C@H]6O)[C@]5(C)[C@H]4CC[C@]3(C)[C@H]1[C@@H]2C (stereo partly specified) [ANGUDRACANOSIDE F]	–	inactive	inactive	inactive	inactive	9.5 (≈ 13.7 µM)
C[C@H]1CC[C@@]2(OC1)OC1C[C@H]3[C@@H]4CC=C5C[C@@H](O)C[C@@H](O[C@@H]6OC[C@H](O)[C@H](O)[C@H]6O[C@@H]6O[C@@H](C)[C@H](O)[C@@H](O)[C@H]6O)[C@]5(C)[C@H]4CC[C@]3(C)[C@H]1[C@@H]2C (stereo partly specified)	–	inactive	inactive	inactive	inactive	20 (≈ 28.2 µM)
C=C1CC[C@@]2(OC1)OC1C[C@H]3[C@@H]4CC=C5C[C@@H](O)C[C@@H](O[C@@H]6OC[C@H](OS(=O)(=O)O)[C@H](O)[C@H]6O[C@@H]6O[C@@H](C)[C@H](O)[C@@H](O)[C@H]6O)[C@]5(C)[C@H]4CC[C@]3(C)[C@H]1[C@@H]2C (stereo partly specified)	inactive	inactive	inactive	inactive	inactive	–
C=C1CC[C@@]2(OC1)OC1C[C@H]3[C@@H]4[C@@H](O)C=C5C[C@@H](O)C[C@@H](O[C@@H]6OC[C@H](OS(=O)(=O)O)[C@H](O)[C@H]6O[C@@H]6O[C@@H](C)[C@H](O)[C@@H](O)[C@H]6O)[C@]5(C)[C@H]4CC[C@]3(C)[C@H]1[C@@H]2C (stereo partly specified)	inactive	inactive	inactive	inactive	inactive	–

— ChEMBL document CHEMBL1221370, “Steroidal saponins from fresh stems of Dracaena angustifolia” (J Nat Prod, 2010)
